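The compound was tested at five concentrations on cells cultured in 96-well plates, with a 48-hour exposure period. At the GI50, growth is halved.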 Calls of active or inactive are those of the source. No stated cut-off is given here; in the data, active = GI50 up to about 1.1 µM and inactive = higher. Some results are limits rather than exact numbers.

Holding throughout (experiment): NCI-60 cell line screen, 48 h
Assay [1] concerns OVCAR-5.
In assay [2] the test system is HCT-116.
Assay [3] concerns TK-10.
The subject of assay [4] is OVCAR-3.
Assay [5] relates to MDA-N.
Assay [6] has as its system SF-268.
The test system of assay [7] is HL-60.
Assay [8] relates to SK-MEL-28.
Assay [9] deals with SNB-19.
In assay [10] the test system is SF-539.
Assay [11] deals with NCI-H460.
For assay [12], the system named is MDA-MB-231.
In assay [13] the test system is LOX IMVI.
Assay [14] concerns UO-31.
For assay [15], the system named is DU-145.
The test system of assay [16] is HCC 2998.
The test system of assay [17] is OVCAR-4.
For assay [18], the system named is PC-3.
In assay [19] the test system is T47D.
Assay [20] has as its system NCI-H522.

As for `O=C(Nc1nc(C23CC4CC(CC(C4)C2)C3)cs1)c1cc2cc(Br)cc(Br)c2oc1=O`, the GI50 in assay [1] is > 100 µM (inactive); in assay [2] it was 59 µM (inactive); in assay [3], > 100 µM (inactive); in assay [4], 61.4 µM (inactive); in assay [5] it was 87.5 µM (inactive); in assay [6], 37.8 µM (inactive). Further, the GI50 in [7] was 65.5 µM (inactive); in assay [8], > 100 µM (inactive); in assay [9], 41.8 µM (inactive); in [10] it was 51.8 µM (inactive); in assay [11] it was 37 µM (inactive); in [12], 52.6 µM (inactive). In addition, the GI50 in assay [13] was > 100 µM (inactive); in assay [14], > 100 µM (inactive); in [15] it was 65.5 µM (inactive); in assay [16], 75.7 µM (inactive); in assay [17] it was 58.1 µM (inactive); in assay [18], 71.1 µM (inactive). For the same compound, the GI50 in assay [19] and in assay [20] was > 100 µM (inactive) each time.
Consider `CCOC(=O)C1C/C(C)=C(/C)SCCCS1` (stereo not given), for which the GI50 was > 100 µM (inactive) in [1]; 50.2 µM (inactive) in [2]; > 100 µM (inactive) in assay [3]; 98.9 µM (inactive) in assay [4]; > 100 µM (inactive) in assay [5]; > 100 µM (inactive) in assay [6]. For the same compound, the GI50 in [7] is 28.6 µM (inactive); in assay [8], > 100 µM (inactive); in assay [9] it was > 100 µM (inactive); in assay [10] it was > 100 µM (inactive); in [11], > 100 µM (inactive); in [12], > 100 µM (inactive). The GI50 is 68.5 µM (inactive) in [13]; > 100 µM (inactive) in [14]; > 100 µM (inactive) in assay [15]; > 100 µM (inactive) in [16]; > 100 µM (inactive) in assay [17]; > 100 µM (inactive) in assay [18]. Also, the figures for the GI50 in [19] and in assay [20] were 60.3 µM (inactive) and 13.5 µM (inactive), respectively.
Turning to `O=c1n(-c2ccc(Cl)c(Cl)c2)c(=O)n(-c2ccc(Cl)c(Cl)c2)c(=O)n1-c1ccc(Cl)c(Cl)c1`, the GI50 in assay [1] was 3.63 µM (inactive); in assay [2], 1.2 µM (inactive); in assay [3], 5.53 µM (inactive); in assay [4], 2.99 µM (inactive); in assay [5] it was 2.9 µM (inactive); in [6] it was 2.45 µM (inactive). Also, the GI50 was 2.89 µM (inactive) in assay [7]; 4.16 µM (inactive) in assay [8]; 5.01 µM (inactive) in [9]; 0.769 µM (active) in assay [10]; 1.59 µM (inactive) in assay [11]; 1.8 µM (inactive) in assay [12]. The GI50 in assay [13] is 2.55 µM (inactive); in assay [14], 2.76 µM (inactive); in [15], 4.01 µM (inactive); in assay [16], 2.2 µM (inactive); in [17], 3.94 µM (inactive); in [18], 0.703 µM (active). Also, the GI50 in assay [19] was 1.57 µM (inactive); in assay [20] it was 3.52 µM (inactive).
Regarding `CCNc1nc(N)c(C(=O)c2cccs2)s1`, the GI50 in assay [1] was 31.3 µM (inactive); in assay [2], 9.86 µM (inactive); in assay [3], 48 µM (inactive); in assay [4] it was 22 µM (inactive); in [5], 25.6 µM (inactive); in [6] it was 32.8 µM (inactive). Further, the GI50 in [7] is 4.1 µM (inactive); in assay [8] it was 31 µM (inactive); in [9] it was 40.7 µM (inactive); in assay [10], 15.5 µM (inactive); in assay [11], 20.4 µM (inactive); in assay [12], 50.4 µM (inactive). The GI50 was 18.4 µM (inactive) in assay [13]; 38 µM (inactive) in assay [14]; 8.99 µM (inactive) in assay [15]; 34.3 µM (inactive) in [16]; 21.1 µM (inactive) in [17]; 31.5 µM (inactive) in [18]. Besides, the GI50 in assay [19] is 19.1 µM (inactive); in assay [20], 26.3 µM (inactive).
Turning to `C=C1C(=O)O[C@@H]2C[C@]3(C)CC[C@]4(C)[C@H](CC[C@@H]5[C@@]6(C)CCC(=O)C(C)(C)[C@@H]6CC[C@]54C)[C@H]3[C@H]12` [OCHRACEOLIDE A], the GI50 in assay [1] was 18.4 µM (inactive); in [2] it was 13.6 µM (inactive); in assay [3] it was 16 µM (inactive); in assay [4], 17.3 µM (inactive); in assay [5], 15.3 µM (inactive); in assay [6] it was 22.2 µM (inactive). The GI50 in [7] was 1.63 µM (inactive); in assay [8], 18.9 µM (inactive); in assay [9], 26.9 µM (inactive); in [10], 21.7 µM (inactive); in [11], 18.5 µM (inactive); in assay [12] it was 24.7 µM (inactive). The GI50 was 15.2 µM (inactive) in assay [13]; 14.8 µM (inactive) in assay [14]; 17.9 µM (inactive) in [15]; 19.2 µM (inactive) in [16]; 18.3 µM (inactive) in [17]; 14.7 µM (inactive) in [18]. Besides, the GI50 was 10.6 µM (inactive) in [19] and 7.33 µM (inactive) in assay [20].

For the origin of these results see ChEMBL document CHEMBL1201862, “PubChem BioAssay data set” (2004).
